Data on 27 compounds can be found in US5081131A, “Omega-((hetero)alkyl)benz(cd)-indol-2-amines” (American Cyanamid Company, priority 1988, dated 1992).

The inhibition is how much of the control response was suppressed.

Test [1] addresses T1, thromboxane synthetase enzyme (Rattus norvegicus, UniProt P49430).
T1 construct: endogenous in cells; host or cells: washed platelets from arterial blood of male Okamoto-Aoki spontaneously hypertensive rats (animals from Taconic Farms, Germantown, N.Y.)
T1 sequence (P49430 1-533): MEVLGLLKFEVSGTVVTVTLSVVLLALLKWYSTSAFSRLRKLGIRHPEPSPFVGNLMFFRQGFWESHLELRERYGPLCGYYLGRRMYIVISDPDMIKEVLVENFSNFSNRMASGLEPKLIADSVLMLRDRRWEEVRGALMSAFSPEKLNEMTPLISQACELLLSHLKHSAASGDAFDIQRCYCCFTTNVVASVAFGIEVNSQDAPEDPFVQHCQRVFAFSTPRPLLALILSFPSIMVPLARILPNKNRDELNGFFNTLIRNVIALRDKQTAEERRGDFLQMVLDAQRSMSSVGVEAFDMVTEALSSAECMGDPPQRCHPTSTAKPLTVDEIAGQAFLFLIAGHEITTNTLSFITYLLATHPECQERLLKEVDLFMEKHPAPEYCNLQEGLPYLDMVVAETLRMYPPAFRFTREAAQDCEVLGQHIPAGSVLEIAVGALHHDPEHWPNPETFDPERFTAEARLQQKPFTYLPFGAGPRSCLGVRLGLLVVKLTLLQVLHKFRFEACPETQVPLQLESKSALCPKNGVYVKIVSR
Put plainly: Thromboxane synthetase enzyme inhibition (TXB2 formation in washed platelets, RIA). It is filed as cell-based, spontaneously hypertensive rat. The settings on record: 1×10^-4 Molar, SHR platelets, 10 min at 37° C.; for inhibition at 100 µM: read-out: % Inhibition (Thromboxane Synthetase Enzyme Inhibition). On the procedure: The blood was diluted with 3 ml cold saline and centrifuged at room temperature for 15 min at 468×g. The platelet rich plasma (PRP) was separated. The platelets were isolated by certrifuging the PRP for 10 minutes at 1060×g and washed in 4 ml cold oxygenated Krebs phosphate buffer, pH 7.4. The chilled platelets recovered from centrifuging at 800×g for 10 minutes were resuspended in oxygenated Krebs phosphate buffer and diluted to contain 4.0-6.0×10^4 platelets/micro-liters. The inhibition of TX formation was studied by determining the concentration of thromboxane B2 (TXB2), the stable hydrolysis product of TXA2. Assay samples prepared on ice, contained 200 micro-liters platelet suspension, 50 micro-liters saline, and 50 micro-liters […] (saline) or drug under study. The test drug (0.003 mole) was dissolved in 5 ml of saline. […] The assay samples were incubated for 10 minutes at 37° C. in a metabolic shaker at about 60 rpm. The reaction was terminated by immersing the tubes in an ice bath and adding 50 micro-liters of 0.5M citric acid. The samples were centrifuged for 10 minutes at 2000 rpm at 4° C., and the supernatants were decanted.

The test system of test [2] is spontaneously hypertensive rats. The test can be described thus: Hypotensive activity in spontaneously hypertensive rats (MABP). It is filed as in vivo, rat (Okamoto strain). The settings on record: SHR, gavage, two doses of 10 mg/kg or less 24 h apart, MABP at 28 h; average baseline 160±1.5 mm Hg. The method, boiled down:
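Male 16-week Okamoto spontaneously hypertensive rats dosed by gavage in 2% starch at 10 mg/kg or less with 0.9% NaCl loading 25 ml/kg; identical dose without saline given 24 hours later. Mean arterial blood pressure measured 28 hours after first dose; 1 to 4 rats per compound.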

Counter-ions that a name gives are not always drawn.

For the compound `c1cc2c3c(cccc3c1)C(NCCCn1cnc3ccccc31)=N2` [N-(3-(1H-benzimidazol-1-yl)propyl)benz(cd)indol-2-amine], the “% Inhibition (Thromboxane Synthetase Enzyme Inhibition)” value (from here on “% Inhibition”) in test [1] is listed as 60%. Also, in test [2], the “Avg. MABP in mm Hg (No. of Rats)” value is on record as 124 mm Hg.

Consider `Brc1ccc2c3c(cccc13)C(NCCCn1ccnc1)=N2` [6-Bromo-N-(3-(1H-imidazol-l-yl)propyl)benz(cd)indol-2-amine, dihydrochloride], for which the inhibition at 100 µM in test [1] was determined as 85%. Further, the “Avg. MABP in mm Hg (No. of Rats)” value in test [2] is listed as 117 mm Hg.

With `O=C(O)/C=C/C(=O)O.c1cc2c3c(cccc3c1)C(NCCCCCn1ccnc1)=N2` [N-(5-(1H-imidazol-1-yl)pentyl)benz(cd)indol-2-amine, fumarate], in test [1], the inhibition at 100 µM was 95%. Further, the “Avg. MABP in mm Hg (No. of Rats)” value in test [2] is reported as 111 mm Hg.

Take `Cl.Cl.c1cc2c3c(cccc3c1)C(NCCCCCCCCn1ccnc1)=N2` [N-(8-(1H-imidazol-1-yl)octyl)benz(cd)indol-2-amine, dihydrochloride]: the inhibition at 100 µM in test [1] was determined as 100%. Further, the “Avg. MABP in mm Hg (No. of Rats)” value in test [2] was found to be 111 mm Hg.

In the case of `O=C(O)/C=C/C(=O)O.c1cc2c3c(cccc3c1)C(NCCCn1cnc3ccccc31)=N2` [N-(3-(1H-benzimidazol-1-yl)propyl)benz(cd)indol-2-amine, fumarate], in test [1], the “% Inhibition” value is listed as 90%. For the same compound, the “Avg. MABP in mm Hg (No. of Rats)” value in test [2] came to 123 mm Hg.

`O=S(=O)(c1ccccc1)N(CCCn1ccnc1)C1=Nc2cccc3cccc1c23` [N-Benz(cd)indol-2-yl-N-(3-(1H-imidazol-1-yl)propyl)benzenesulfonamide]: the inhibition at 100 µM in test [1] is 93%. The “Avg. MABP in mm Hg (No. of Rats)” value in test [2] came out at 135 mm Hg.

Consider `Clc1cc(Cl)c2cccc3c2c1N=C3NCCCCc1cccnc1` [6,8-Dichloro-N-(4-(3-pyridinyl)butyl)benz(cd)indol-2-amine], for which, in test [1], the inhibition at 100 µM was 93%. For the same compound, the “Avg. MABP in mm Hg (No. of Rats)” value in test [2] came out at 102 mm Hg.

For `Brc1ccc2c3c(cccc13)C(NCCCCn1ccnc1)=N2` [6-Bromo-N-(4-(1H-imidazol-1-yl)butyl)benz(cd)indol-2-amine], the inhibition at 100 µM in test [1] came out at 98%. Moreover, the “Avg. MABP in mm Hg (No. of Rats)” value in test [2] was 120 mm Hg.

In the case of `c1ccc(CCCCNC2=Nc3cccc4cccc2c34)nc1` [N-(4-(2-Pyridinyl)butyl)benz(cd)indol-2-amine, sesqui-fumarate], the inhibition at 100 µM in test [1] was 89%. Besides, the “Avg. MABP in mm Hg (No. of Rats)” value in test [2] was determined as 106 mm Hg.

Take `O=C(c1ccccc1)N(CCCn1ccnc1)C1=Nc2cccc3cccc1c23` [N-Benz(cd)indol-2-yl-N-(3-(1H-imidazol-1-yl)propyl)benzamide]: the inhibition at 100 µM in test [1] was found to be 94.5%. Moreover, the “Avg. MABP in mm Hg (No. of Rats)” value in test [2] is on record as 95 mm Hg.

For `Brc1ccc2c3c(cccc13)C(NCCCCCCCCCCCCn1ccnc1)=N2` [6-Bromo-N-(12-(1H-imidazol-1-yl)dodecyl)benz(cd)indol-2-amine], the inhibition at 100 µM in test [1] is 90%. Also, the “Avg. MABP in mm Hg (No. of Rats)” value in test [2] came to 128 mm Hg.

`c1cc2c3c(cccc3c1)C(NCCc1ccncc1)=N2` [N-(2-(4-Pyridinyl)ethyl)benz(cd)indol-2-amine, sesqui-fumarate]: in test [1], the inhibition at 100 µM amounted to 88%. Further, the “Avg. MABP in mm Hg (No. of Rats)” value in test [2] came to 115 mm Hg.

For the compound `CC(CCNC1=Nc2cccc3cccc1c23)CCn1ccnc1` (stereo not drawn) [N-(5-(1H-imidazol-1-yl)-3-methylpentyl)benz(cd)indol-2-amine,dihydrochloride], the inhibition at 100 µM in test [1] came to 100%. Moreover, the “Avg. MABP in mm Hg (No. of Rats)” value in test [2] came to 92 mm Hg.

In the case of `CC(CCCNC1=Nc2cccc3cccc1c23)n1ccnc1.O=C(O)/C=C/C(=O)O` (stereo not drawn) [N-(4-(1H-imidazol-1-yl)pentyl)benz(cd)indol-2-amine, fumarate], in test [1], the inhibition at 100 µM is 99%. Besides, the “Avg. MABP in mm Hg (No. of Rats)” value in test [2] was 97 mm Hg.

`Clc1cc(Cl)c2cccc3c2c1N=C3NCCCCCCCCCCn1ccnc1` [6,8-Dichloro-N-(10-(1H-imidazol-1-yl)decyl)benz(cd)indol-2-amine]: the inhibition at 100 µM in test [1] worked out at 96%. Also, the “Avg. MABP in mm Hg (No. of Rats)” value in test [2] is 121 mm Hg.

Take `COc1ccccc1C(=O)N(CCCCn1ccnc1)C1=Nc2cccc3cccc1c23` [N-Benz(cd)indol-2-yl-N-(4-(1H-imidazol-1-yl)butyl)-2-methoxybenzamide]: in test [1], the inhibition at 100 µM is 93%. In test [2], the “Avg. MABP in mm Hg (No. of Rats)” value worked out at 76 mm Hg.

As for `CC(CNC1=Nc2cccc3cccc1c23)Cc1cccnc1.O=C(O)/C=C/C(=O)O` (stereo not drawn) [N-(2-Methyl-3-(3-pyridinyl)propyl)benz(cd)indol-2-amine, fumarate], the inhibition at 100 µM in test [1] was 99%. The “Avg. MABP in mm Hg (No. of Rats)” value in test [2] was 124 mm Hg.

For `O=C(O)/C=C/C(=O)O.c1ccc(CCNC2=Nc3cccc4cccc2c34)nc1` [N-(2-(2-Pyridinyl)ethyl)benz(cd)indol-2-amine, fumarate], the inhibition at 100 µM in test [1] is 94%. Besides, the “Avg. MABP in mm Hg (No. of Rats)” value in test [2] amounted to 137 mm Hg.

On to `Clc1cc(Cl)c2cccc3c2c1N=C3NCCCn1ccnc1` [6,8-Dichloro-N-(3-(1H-imidazol-1-yl)propyl)benz(cd)indol-2-amine], for which the inhibition at 100 µM in test [1] was determined as 97%. Further, the “Avg. MABP in mm Hg (No. of Rats)” value in test [2] is recorded as 102 mm Hg.

Regarding `O=C(O)/C=C/C(=O)O.c1cc2c3c(cccc3c1)C(NCc1ccc(Cn3ccnc3)cc1)=N2` [N-((4-(1H-imidazol-1-ylmethyl)phenyl)methyl)benz(cd)indol-2-amine, fumarate], the inhibition at 100 µM in test [1] came out at 100%. In addition, the “Avg. MABP in mm Hg (No. of Rats)” value in test [2] is given as 121 mm Hg.

As for `Cc1ccc(S(=O)(=O)Nc2ccc3c4c(cccc24)C(NCCCCn2ccnc2)=N3)cc1` [monoacetate], the inhibition at 100 µM in test [1] is 79%. Besides, the “Avg. MABP in mm Hg (No. of Rats)” value in test [2] worked out at 125 mm Hg.

In the case of `O=C(O)/C=C/C(=O)O.c1cncc(OCCCNC2=Nc3cccc4cccc2c34)c1` [N-(3-(3-Pyridinyloxy)propyl)benz(cd)indol-2-amine, fumarate], the inhibition at 100 µM in test [1] turned out to be 94%. In addition, the “Avg. MABP in mm Hg (No. of Rats)” value in test [2] turned out to be 116 mm Hg.

Regarding `CC(CNC1=Nc2cccc3cccc1c23)Cn1ccnc1.Cl.Cl` (stereo not drawn) [N-(3-(1H-imidazol-1-yl)-2-methylpropyl)benz(cd)indol-2-amine, dihydrochloride], the inhibition at 100 µM in test [1] was determined as 95%. Also, in test [2], the “Avg. MABP in mm Hg (No. of Rats)” value is given as 113 mm Hg.

Consider `O=C(O)/C=C/C(=O)O.c1ccc(OCCNC2=Nc3cccc4cccc2c34)nc1` [N-(2-(2-Pyridinyloxy)ethyl)benz(cd)indol-2-amine fumarate], for which the inhibition at 100 µM in test [1] was determined as 88%. The “Avg. MABP in mm Hg (No. of Rats)” value in test [2] is on record as 140 mm Hg.

For `c1cc2c3c(cccc3c1)C(NCc1ccncc1)=N2` [N-(4-Pyridinylmethyl)benz(cd)indol-2-amine, sesqui-fumarate], in test [1], the inhibition at 100 µM came out at 97%. Moreover, the “Avg. MABP in mm Hg (No. of Rats)” value in test [2] is on record as 90 mm Hg.

As to `C(=C/Cn1ccnc1)/CNC1=Nc2cccc3cccc1c23` [(Z)-N-(4-(1H-imidazol-1-yl)-2-butenyl)benz(cd)indol-2-amine, hydriodide], in test [1], the “% Inhibition” value was found to be 100%. Besides, the “Avg. MABP in mm Hg (No. of Rats)” value in test [2] stood at 106 mm Hg.

For `C(=C/Cn1ccnc1)/CNC1=Nc2cccc3cccc1c23.Cl.Cl` [(Z)-N-(4-(1H-imidazol-1-yl)-2-butenyl)benz(cd)indol-2-amine, dihydrochloride], the inhibition at 100 µM in test [1] was found to be 97%. Also, in test [2], the “Avg. MABP in mm Hg (No. of Rats)” value is recorded as 77 mm Hg.
